Measured values as given in article PMC9579956 (RSC Medicinal Chemistry, 2022).

biological target: Mycobacterium thermoresistible (Mtr) LpqY (Mycolicibacterium thermoresistibile, UniProt G7CES0); format: binding; details: single dose MST screen against LpqY
Sequence (G7CES0 29-471): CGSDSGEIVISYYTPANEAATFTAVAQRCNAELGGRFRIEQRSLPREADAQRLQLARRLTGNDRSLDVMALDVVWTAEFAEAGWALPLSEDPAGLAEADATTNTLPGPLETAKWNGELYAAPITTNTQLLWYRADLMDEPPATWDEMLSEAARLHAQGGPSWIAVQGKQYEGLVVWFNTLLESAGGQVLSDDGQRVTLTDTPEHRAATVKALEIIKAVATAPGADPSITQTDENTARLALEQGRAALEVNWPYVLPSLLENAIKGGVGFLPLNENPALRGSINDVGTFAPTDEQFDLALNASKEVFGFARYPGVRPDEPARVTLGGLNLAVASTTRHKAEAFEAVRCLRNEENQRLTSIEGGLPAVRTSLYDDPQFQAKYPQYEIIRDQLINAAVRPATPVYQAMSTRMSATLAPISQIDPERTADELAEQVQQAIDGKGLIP

Compound | Pathogen Box screen signal/noise ratio
NCC(=O)N1CCn2c(nc(-c3ccccc3)c2Nc2ccc3c(c2)OCO3)C1 [MMV011691] | 1.3
COc1cc(C2=NCCN2)ccc1-n1cc(-c2cccc(C3=NCCN3)c2)nn1 [MMV688474] | 0.217
COc1ccc(CCN2CCC(NCc3cccc(N(C)C)c3)CC2)cc1 [MMV011511] | 0.8
O=C(NCc1ccco1)N1CCN(Cc2ccc(Cl)s2)CC1 [MMV688555] | 0.218
COc1ccc2nc(C)cc(OCC(=O)Nc3ccccc3OC)c2c1 [MMV687188] | 1.7
CN1CCC(c2cc(-c3ccncc3)c(-c3ccc(F)cc3)[nH]2)CC1 [MMV688703] | 1.2
O=C(Nc1nc(-c2ccccn2)cs1)C1CC1c1ccccc1F (centres unmarked) [MMV1028806] | 0.225
CC(Oc1ccccc1)C(=O)Nc1nc(-c2ccccn2)cs1 (centres unmarked) [MMV676411] | 0.0833
O=C(Cn1ccnc1[N+](=O)[O-])NCc1ccccc1 [MMV688773] | 2.9
CC(C)(C)c1cc(C(=O)Nc2cccnc2)cc(C(=O)Nc2cccnc2)c1 [MMV020982] | 1.3
COc1ccc(CN2CCOc3ccc(C(C)(O)CN(C)C)cc3C2)cc1C (centres unmarked) [MMV008439] | 0.222
O=C(Nc1cccnc1)c1c(O)c2cccc3c2n(c1=O)CC3 [MMV676395] | 2.1
CCc1ccc(S(=O)(=O)Nc2cc(CN3CCN(CCC(C)C)CC3)ccc2C)cc1 [MMV688124] | 0.85
COc1nc2ccc(Br)cc2cc1[C@@H](c1ccccc1)[C@@](O)(CCN(C)C)c1cccc2ccccc12 [MMV689758] | 0.444
Cc1ncc(-c2ccnc(Nc3ccc(S(C)(=O)=O)cc3)n2)n1C(C)C [MMV676604] | 4.2
CC(C)(C)C(O)C(Oc1ccc(-c2ccccc2)cc1)n1cncn1 (centres unmarked) [MMV688942] | 0.451
c1ccc(Oc2ccc(-c3cc(C4CCOCC4)[nH]n3)cc2)cc1 [MMV687762] | 0.6
O=C(NCCc1ccn(-c2ccccc2)n1)C1CCCCC1 [MMV688795] | 0.0455
O=[N+]([O-])c1cn2c(n1)OC[C@@H](OCc1ccc(OC(F)(F)F)cc1)C2 [MMV688755] | 0.4
CC(C)=CCC/C(C)=C\CNCCNC1C2CC3CC(C2)CC1C3 (centres unmarked) [MMV687273] | 1.3
CCNC(=O)C(C)Nc1nc(-c2cccnc2)nc2sc(C)c(C)c12 (centres unmarked) [MMV1037162] | 1.2
CC(C)C(C(=O)Nc1ccc(S(=O)(=O)N(C)C)cc1)c1ccc(Cl)cc1 (centres unmarked) [MMV020391] | 0.25
CC(C)(C)c1cnc(NC(=O)c2ccccc2O)s1 [MMV495543] | 0.8
CC[C@@H]([C@H](C)O)n1ncn(-c2ccc(N3CCN(c4ccc(OC[C@@H]5CO[C@@](Cn6cncn6)(c6ccc(F)cc6F)C5)cc4)CC3)cc2)c1=O [MMV688774] | 3.4
CC1COC2(CCN(c3nc(=O)c4cc(C(F)(F)F)cc([N+](=O)[O-])c4s3)CC2)O1 (centres unmarked) [MMV676603] | 1.8
CC1CCCCN1C(=O)NCCc1coc(-c2ccc(F)cc2)n1 (centres unmarked) [MMV688797] | 1.4

Compound | Pathogen Box screen signal/noise ratio
COc1cc2ncnc(NC3CCN(Cc4ccccc4)CC3)c2cc1OC [MMV006741] | 4.3
CC(=O)Nc1ccc(NC(=O)c2cc(-c3cc(Cl)ccc3O)[nH]n2)cc1 [MMV676380] | 1.2
COc1ccc(C2=NCCN2)cc1-c1cn(-c2cccc(C3=NCCN3)c2)nn1 [MMV688547] | 0.9
Nc1ncc(Br)cc1-c1nc2cc(Cl)cnc2[nH]1 [MMV676358] | 4.8
CCN(CC)C(=O)N1CCN(C)CC1 [MMV002816] | 1.5
O=C(c1ccco1)N(CCCn1ccnc1)c1nc2c(Cl)cccc2s1 [MMV688936] | 1.4
Cc1ccc(C(=O)Nc2ccc(S(=O)(=O)O)c3cc(S(=O)(=O)O)cc(S(=O)(=O)O)c23)cc1NC(=O)c1cccc(NC(=O)Nc2cccc(C(=O)Nc3cc(C(=O)Nc4ccc(S(=O)(=O)O)c5cc(S(=O)(=O)O)cc(S(=O)(=O)O)c45)ccc3C)c2)c1 [MMV637953] | 0.7
O[C@@H](c1cc(C(F)(F)F)nc2c(C(F)(F)F)cccc12)[C@H]1CCCCN1 [MMV000016] | 1.8
Cc1nc(-c2cccc(NCc3ccccc3)c2)[nH]c1C [MMV023227] | 1.4
CCc1nc2ccc(Cl)cn2c1C(=O)NCc1ccc(N2CCC(c3ccc(OC(F)(F)F)cc3)CC2)cc1 [MMV687696] | 1.0
CCC(NC(=O)c1ccccc1NC(=O)c1ccc(C)cc1)C(=O)OC (centres unmarked) [MMV019551] | 0.267
CCc1nc2ccc(C(=O)NCc3ccc4c(c3)OCO4)cn2c1N(C)Cc1cccs1 [MMV407539] | 0.241
O=C(Nc1ccccc1)c1ccc(-c2cc3ccncc3cc2OC2CCNCC2)s1 [MMV024035] | 2.8
c1ccc2c(c1)CN(CC1CC1)CC1(CCN(Cc3c[nH]c4cnccc34)CC1)O2 [MMV023183] | 2.8
FC(F)(F)c1cccc(-c2nc3c(NCc4ccncc4)nccc3[nH]2)c1 [MMV032967] | 3.3
Cc1nn(C)c(C)c1NS(=O)(=O)c1c(Cl)cc(-c2ccnc(N3CCNCC3)c2)cc1Cl [MMV688180] | 0.15
CCN(CC)S(=O)(=O)c1ccc(C(=O)Nc2cc(C)nn2-c2nc(C)c(C)c(=O)[nH]2)cc1 [MMV595321] | 0.167
CN1CCCN(C(c2ccccc2)c2ccc(Cl)cc2)CC1 (centres unmarked) [MMV004168] | 0.9
FC(F)(F)c1cc(NCCc2ccccc2)nc(-c2ccccn2)n1 [MMV659010] | 1.0
Cc1noc(C)c1C(=O)N1CCCC(c2[nH]c3c(C)cccc3c2-c2ccncc2)C1 (centres unmarked) [MMV020623] | 2.5
O=C(c1cc2ccccc2o1)N1CCN(Cc2ccc3c(c2)OCO3)CC1 [MMV676520] | 1.1
Oc1c(I)cc(I)c2cccnc12 [MMV002817] | 0.152
Cc1ccc(-c2cc(C(=O)Nc3cccnc3)c3cc(Br)ccc3n2)cc1 [MMV016838] | 0.75
CO[C@@H](C(=O)N1Cc2[nH]nc(NC(=O)c3ccc(N4CCN(C)CC4)cc3)c2C1)c1ccccc1 [MMV676600] | 0.6
Cc1ccc(NC(=O)c2nc[nH]c2C(=O)Nc2nc3ccccc3[nH]2)c(C)c1 [MMV011903] | 1.4
O=C(Nc1ccc(N2CCNCC2)nc1)c1oc(-c2ccccc2)nc1C(F)(F)F [MMV024937] | 2.9

Compound | Pathogen Box screen signal/noise ratio
O=C1Nc2ccc(Br)cc2C12NCCc1c2[nH]c2ccccc12 (centres unmarked) [MMV006239] | 2.0
FC(F)(F)c1cnc(Sc2nnc(-c3ccncc3)o2)c(Cl)c1 [MMV011765] | 1.6
CCOC(=O)c1c(NC(=O)c2c(F)c(F)c(F)c(F)c2F)sc(C(N)=O)c1C [MMV153413] | 1.3
NC(CC(=O)c1ccc(Cl)cc1Cl)C(Cl)(Cl)Cl (centres unmarked) [MMV676468] | 0.8
Cc1ccc(S(=O)(=O)n2cc(-c3ccnc(N)c3)c3cc(Br)cnc32)cc1 [MMV024114] | 1.1
C[C@H](C(N)=O)N1CCCC[C@@H]1c1ccc(OCc2cccc(F)c2)cc1 [MMV676270] | 0.9
CC(C)(C)n1nc(-c2ccccc2)c2c(N)ncnc21 [MMV688548] | 1.0
C[C@H](c1ccc2c(c1)CCCC2)N(C)c1ncc2c(N)nc(N)nc2n1 [MMV690103] | 1.5
O=C(C1CCCCC1)N1CC(=O)N2CCc3ccccc3C2C1 (centres unmarked) [MMV002529] | 0.167
CN(C)CCNC(=O)N1CCCN(c2ncnc3cc(-c4ccccc4)sc23)CC1 [MMV024195] | 0.217
CN1CCN(CCCOc2ncc(Nc3ncc(-c4ccc(C(F)(F)F)c(F)c4)nc3C(N)=O)cn2)CC1 [MMV687812] | 4.1
COc1cccc(-n2nnnc2S(=O)(=O)Cc2ccccc2)c1 [MMV676388] | 0.952
O=C(NC1CCN(c2ccnc3ccccc23)C1)c1cccc(C(F)(F)F)c1 (centres unmarked) [MMV023388] | -0.0357
CCN(CC)CCCN1CCN(C(=O)c2cccc(-c3noc(C(F)(F)F)n3)c2)CC1 [MMV022236] | 0.542
N=C(N)Nc1ccc(-c2ccc(-c3ccc(NC(=N)N)cc3Cl)o2)c(Cl)c1 [MMV688179] | 2.0
CN1CCN(S(=O)(=O)c2ccc(-c3ccc4c(Nc5ccc6nn[nH]c6c5)ccnc4c3)cc2)CC1 [MMV687246] | 2.8
CC(C(=O)N1CCCC1)N1CCN(S(=O)(=O)c2ccc(C(C)(C)C)cc2)CC1 (centres unmarked) [MMV020291] | 1.8
Cc1cccc(C(=O)Nc2ccnc(N(C)C3CCN(CC(C)C)CC3)c2)c1 [MMV024829] | -0.0167
Cc1nn(C)cc1C(C)Nc1nncc(-c2ccc(C(F)(F)F)cc2)n1 (centres unmarked) [MMV019993] | 0.25
Clc1ccc(Cl)c(CO[C@H]2CCCC[C@@H]2n2ccnc2)c1 [MMV676048] | 1.1
CCOc1ccc2cc(-c3nn(CC4CCN(C)CC4)c4ncnc(N)c34)ccc2c1 [MMV688854] | 1.2
CS(=O)(=O)N1CCC(CCn2nc(Cc3cccc4ccccc34)c3c(N)ncnc32)CC1 [MMV688470] | 0.75
O=C(COc1cccc(F)c1)Nc1nc(-c2ccccn2)cs1 [MMV676409] | 0.449
N=C(N)Nc1ccc(-c2ccc(-c3ccc(N=C(N)N)c(Cl)c3)o2)cc1Cl [MMV688271] | 2.0
CNc1nnc(Sc2cnn(-c3ccccc3)c(=O)c2Cl)s1 [MMV688763] | 4.7
